Laboratory results: article PMC5448077, “Development of an orally available inhibitor of CLK1 for skipping a mutated dystrophin exon in Duchenne muscular dystrophy” (Scientific Reports, 2017)

Experiments:
Experiment in all cases: biochemical
IKKα = molecular target: T1, IKKα (Homo sapiens, UniProt O15111)
T1 construct: gene CHUK
How it was run: (§1)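 Human kinases phosphorylating kinase-specific synthetic peptides, assayed by mobility shift (MSA) or IMAP fluorescence polarization, in 20 mM HEPES pH 7.5, 0.01% Triton X-100, 2 mM DTT with substrate/ATP-metal. Reactions ran 1 or 5 h at room temperature; activity = P/(P + S) from product and substrate peak heights.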

MAPKAPK3 = MAPKAPK3 (Homo sapiens, UniProt Q16644)
How it was run: as §1

BMX = BMX (Homo sapiens, UniProt P51813)
How it was run: as §1

PKCζ = molecular target: T2, PKCζ (Homo sapiens, UniProt Q05513)
T2 construct: gene PRKCZ
How it was run: as §1

FGFR1 = FGFR1 (Homo sapiens, UniProt P11362)
How it was run: as §1

CDK5/p25 = molecular target: T3, CDK5/p25 (Homo sapiens, UniProt Q00535)
T3 construct: p25
How it was run: as §1

ALK(G1202R) = ALK(G1202R) (Homo sapiens, UniProt Q9UM73, G1202R)
How it was run: as §1

KIT(D816V) = KIT(D816V) (Homo sapiens, UniProt P10721, D816V)
How it was run: as §1

MET(M1250T) = MET(M1250T) (Homo sapiens, UniProt P08581, M1250T)
Chain of MET(M1250T) (P08581 whole entry M1250T): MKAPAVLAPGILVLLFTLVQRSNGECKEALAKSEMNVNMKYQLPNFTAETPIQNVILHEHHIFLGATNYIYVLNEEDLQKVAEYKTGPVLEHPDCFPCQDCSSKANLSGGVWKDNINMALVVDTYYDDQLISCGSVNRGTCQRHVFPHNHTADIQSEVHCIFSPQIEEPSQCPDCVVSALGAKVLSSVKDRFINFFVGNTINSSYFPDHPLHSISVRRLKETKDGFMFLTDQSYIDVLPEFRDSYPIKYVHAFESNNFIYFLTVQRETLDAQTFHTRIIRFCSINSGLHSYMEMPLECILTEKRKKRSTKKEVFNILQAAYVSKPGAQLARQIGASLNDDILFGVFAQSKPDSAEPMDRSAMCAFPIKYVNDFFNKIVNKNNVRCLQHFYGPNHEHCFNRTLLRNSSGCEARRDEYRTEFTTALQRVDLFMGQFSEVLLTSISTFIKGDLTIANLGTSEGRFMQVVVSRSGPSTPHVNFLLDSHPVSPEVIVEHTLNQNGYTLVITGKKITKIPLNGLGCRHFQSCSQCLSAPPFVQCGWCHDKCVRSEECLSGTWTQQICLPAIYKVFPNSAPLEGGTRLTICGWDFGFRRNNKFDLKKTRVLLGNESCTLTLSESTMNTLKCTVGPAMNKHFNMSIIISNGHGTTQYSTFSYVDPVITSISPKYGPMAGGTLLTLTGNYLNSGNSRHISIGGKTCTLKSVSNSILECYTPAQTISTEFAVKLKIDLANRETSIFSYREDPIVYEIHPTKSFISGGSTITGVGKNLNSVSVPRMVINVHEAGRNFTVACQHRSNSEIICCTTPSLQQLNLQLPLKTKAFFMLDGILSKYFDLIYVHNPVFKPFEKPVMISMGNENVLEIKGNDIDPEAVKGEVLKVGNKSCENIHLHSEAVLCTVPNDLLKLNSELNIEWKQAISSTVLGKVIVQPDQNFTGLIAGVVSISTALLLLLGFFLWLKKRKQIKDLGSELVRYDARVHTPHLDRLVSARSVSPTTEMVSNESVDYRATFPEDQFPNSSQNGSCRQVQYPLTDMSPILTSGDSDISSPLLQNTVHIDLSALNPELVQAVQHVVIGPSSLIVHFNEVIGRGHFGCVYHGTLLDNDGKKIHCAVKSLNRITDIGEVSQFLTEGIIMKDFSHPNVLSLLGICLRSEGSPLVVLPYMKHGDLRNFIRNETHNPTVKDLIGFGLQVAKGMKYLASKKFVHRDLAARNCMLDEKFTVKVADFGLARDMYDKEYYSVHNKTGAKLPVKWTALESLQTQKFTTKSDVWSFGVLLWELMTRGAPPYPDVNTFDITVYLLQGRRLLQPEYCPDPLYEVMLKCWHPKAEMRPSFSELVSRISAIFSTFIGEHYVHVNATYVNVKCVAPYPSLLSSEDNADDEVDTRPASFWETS
How it was run: as §1

MET(Y1235D) = MET(Y1235D) (Homo sapiens, UniProt P08581, Y1235D)
How it was run: as §1

FGR = FGR (Homo sapiens, UniProt P09769)
How it was run: as §1

EPHA2 = EPHA2 (Homo sapiens, UniProt P29317)
How it was run: as §1

PDGFRα(D842V) = molecular target: T4, PDGFRα(D842V) (Homo sapiens, UniProt P16234, D842V)
T4 construct: gene PDGFRA
How it was run: as §1

PKN1 = PKN1 (Homo sapiens, UniProt Q16512)
How it was run: as §1

p38β = molecular target: T5, p38β (Homo sapiens, UniProt Q15759)
T5 construct: gene MAPK11
T5 sequence (Q15759 whole entry): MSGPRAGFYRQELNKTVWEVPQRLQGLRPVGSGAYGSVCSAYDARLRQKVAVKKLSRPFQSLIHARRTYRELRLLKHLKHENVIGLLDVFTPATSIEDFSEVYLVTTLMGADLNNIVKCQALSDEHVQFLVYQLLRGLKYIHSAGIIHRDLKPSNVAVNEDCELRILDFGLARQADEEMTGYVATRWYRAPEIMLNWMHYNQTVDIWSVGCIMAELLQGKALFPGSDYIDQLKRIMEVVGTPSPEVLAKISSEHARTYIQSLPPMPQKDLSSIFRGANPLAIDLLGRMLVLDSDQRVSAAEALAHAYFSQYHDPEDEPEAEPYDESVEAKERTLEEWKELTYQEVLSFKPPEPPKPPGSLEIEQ
How it was run: as §1

PKCβ1 = molecular target: T6, PKCβ1 (Homo sapiens, UniProt P05771)
T6 construct: gene PRKCB; isoform beta 1
How it was run: as §1

CRIK = molecular target: T7, CRIK (Homo sapiens, UniProt O14578)
T7 construct: gene CIT
How it was run: as §1

MRCKα = molecular target: T8, MRCKα (Homo sapiens, UniProt Q5VT25)
T8 construct: gene CDC42BPA
How it was run: as §1

ALK = ALK (Homo sapiens, UniProt Q9UM73)
How it was run: as §1

AXL = AXL (Homo sapiens, UniProt P30530)
Chain of AXL (P30530 whole entry): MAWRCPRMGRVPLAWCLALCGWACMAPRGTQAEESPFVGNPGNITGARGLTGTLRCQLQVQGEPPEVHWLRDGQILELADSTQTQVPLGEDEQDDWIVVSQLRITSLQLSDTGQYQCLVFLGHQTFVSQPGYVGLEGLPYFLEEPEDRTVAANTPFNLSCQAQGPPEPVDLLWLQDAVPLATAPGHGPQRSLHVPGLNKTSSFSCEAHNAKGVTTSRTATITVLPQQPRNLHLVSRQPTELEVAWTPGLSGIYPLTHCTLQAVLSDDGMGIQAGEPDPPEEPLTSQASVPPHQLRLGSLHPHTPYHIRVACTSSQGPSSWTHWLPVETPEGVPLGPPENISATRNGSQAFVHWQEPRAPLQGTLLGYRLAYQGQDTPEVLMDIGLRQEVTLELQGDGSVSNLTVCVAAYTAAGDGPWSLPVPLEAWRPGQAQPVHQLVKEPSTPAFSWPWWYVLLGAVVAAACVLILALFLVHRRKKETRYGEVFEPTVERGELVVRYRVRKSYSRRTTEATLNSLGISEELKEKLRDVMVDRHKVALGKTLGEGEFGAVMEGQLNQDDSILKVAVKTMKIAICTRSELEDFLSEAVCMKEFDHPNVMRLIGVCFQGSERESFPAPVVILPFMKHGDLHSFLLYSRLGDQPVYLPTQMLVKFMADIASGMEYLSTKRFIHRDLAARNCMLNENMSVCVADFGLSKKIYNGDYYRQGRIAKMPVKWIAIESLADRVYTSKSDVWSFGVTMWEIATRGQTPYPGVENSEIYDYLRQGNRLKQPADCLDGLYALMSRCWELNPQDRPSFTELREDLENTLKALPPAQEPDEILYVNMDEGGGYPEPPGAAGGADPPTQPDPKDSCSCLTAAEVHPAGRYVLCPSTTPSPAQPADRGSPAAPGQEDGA
How it was run: as §1

DAPK1 = DAPK1 (Homo sapiens, UniProt P53355)
How it was run: as §1

MNK2 = molecular target: T9, MNK2 (Homo sapiens, UniProt Q9HBH9)
T9 construct: gene MKNK2
How it was run: as §1

CaMK4 = CaMK4 (Homo sapiens, UniProt Q16566)
How it was run: as §1

ABL(E255K) = molecular target: T10, ABL(E255K) (Homo sapiens, UniProt P00519, E255K)
T10 construct: gene ABL1
How it was run: as §1

CDK2/CycA2 = CDK2/CycA2 (Homo sapiens, UniProt P24941)
How it was run: as §1

EGFR(L858R) = EGFR(L858R) (Homo sapiens, UniProt P00533, L858R)
How it was run: as §1

MARK2 = MARK2 (Homo sapiens, UniProt Q7KZI7)
How it was run: as §1

TEC = TEC (Homo sapiens, UniProt P42680)
How it was run: as §1

FES = FES (Homo sapiens, UniProt P07332)
How it was run: as §1

PKCδ = molecular target: T11, PKCδ (Homo sapiens, UniProt Q05655)
T11 construct: gene PRKCD
How it was run: as §1

KDR = KDR (Homo sapiens, UniProt P35968)
Chain of KDR (P35968 whole entry): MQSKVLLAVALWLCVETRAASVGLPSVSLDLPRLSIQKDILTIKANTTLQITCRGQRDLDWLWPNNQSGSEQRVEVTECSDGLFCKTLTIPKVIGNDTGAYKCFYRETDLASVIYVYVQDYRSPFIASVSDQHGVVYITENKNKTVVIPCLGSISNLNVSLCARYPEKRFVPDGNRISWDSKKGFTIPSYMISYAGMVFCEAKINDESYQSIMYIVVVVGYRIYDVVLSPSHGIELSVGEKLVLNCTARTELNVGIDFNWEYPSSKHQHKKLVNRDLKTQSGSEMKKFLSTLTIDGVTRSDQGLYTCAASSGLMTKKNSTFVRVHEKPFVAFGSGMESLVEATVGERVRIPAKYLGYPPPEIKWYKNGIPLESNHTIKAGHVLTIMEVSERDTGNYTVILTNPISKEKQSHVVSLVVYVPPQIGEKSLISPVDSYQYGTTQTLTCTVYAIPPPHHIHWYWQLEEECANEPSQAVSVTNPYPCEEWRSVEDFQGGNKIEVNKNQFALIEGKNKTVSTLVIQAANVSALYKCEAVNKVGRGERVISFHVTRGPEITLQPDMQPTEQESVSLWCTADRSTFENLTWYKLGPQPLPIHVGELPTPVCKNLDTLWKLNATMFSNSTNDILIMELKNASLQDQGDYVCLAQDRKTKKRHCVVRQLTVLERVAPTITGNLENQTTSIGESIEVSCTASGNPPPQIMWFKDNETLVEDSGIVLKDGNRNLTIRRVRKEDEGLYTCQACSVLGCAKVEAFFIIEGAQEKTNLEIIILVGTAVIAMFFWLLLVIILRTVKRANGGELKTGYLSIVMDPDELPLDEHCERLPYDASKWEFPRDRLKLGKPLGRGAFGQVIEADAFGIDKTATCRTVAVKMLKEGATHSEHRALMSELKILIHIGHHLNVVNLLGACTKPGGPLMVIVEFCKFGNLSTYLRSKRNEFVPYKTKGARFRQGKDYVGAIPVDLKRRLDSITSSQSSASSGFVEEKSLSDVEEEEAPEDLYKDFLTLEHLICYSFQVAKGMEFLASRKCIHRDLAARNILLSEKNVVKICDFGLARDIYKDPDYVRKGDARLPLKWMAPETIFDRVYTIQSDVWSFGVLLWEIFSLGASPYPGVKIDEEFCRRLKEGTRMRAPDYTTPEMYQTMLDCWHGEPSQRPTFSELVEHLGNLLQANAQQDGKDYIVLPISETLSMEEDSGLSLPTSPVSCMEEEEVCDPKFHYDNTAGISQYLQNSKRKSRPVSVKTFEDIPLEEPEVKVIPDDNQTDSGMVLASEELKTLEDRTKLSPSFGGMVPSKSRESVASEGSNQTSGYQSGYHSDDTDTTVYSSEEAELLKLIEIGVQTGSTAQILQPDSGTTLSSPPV
How it was run: as §1

T1 sequence (O15111 whole entry): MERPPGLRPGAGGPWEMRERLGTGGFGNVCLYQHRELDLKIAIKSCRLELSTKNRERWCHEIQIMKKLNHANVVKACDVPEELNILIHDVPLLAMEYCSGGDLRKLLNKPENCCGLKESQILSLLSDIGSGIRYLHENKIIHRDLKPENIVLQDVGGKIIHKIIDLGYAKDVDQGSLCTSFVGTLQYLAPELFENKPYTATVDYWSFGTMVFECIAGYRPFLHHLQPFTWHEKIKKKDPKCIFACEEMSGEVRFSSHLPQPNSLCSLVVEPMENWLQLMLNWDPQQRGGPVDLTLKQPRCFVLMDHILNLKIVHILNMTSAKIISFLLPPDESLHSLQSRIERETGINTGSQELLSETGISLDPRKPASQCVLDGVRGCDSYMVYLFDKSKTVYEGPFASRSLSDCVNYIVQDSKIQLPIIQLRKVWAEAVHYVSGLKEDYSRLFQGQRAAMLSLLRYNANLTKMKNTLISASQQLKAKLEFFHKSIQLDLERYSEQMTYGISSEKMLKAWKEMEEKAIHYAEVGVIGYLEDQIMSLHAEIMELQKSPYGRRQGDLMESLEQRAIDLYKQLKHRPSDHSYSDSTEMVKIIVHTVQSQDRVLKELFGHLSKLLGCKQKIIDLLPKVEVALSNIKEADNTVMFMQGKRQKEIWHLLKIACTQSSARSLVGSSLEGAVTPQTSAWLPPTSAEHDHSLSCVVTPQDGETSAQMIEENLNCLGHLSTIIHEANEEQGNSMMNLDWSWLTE

## c1cc(-c2ccc3[nH]ncc3c2)ccn1 [TG693, 5-(4-pyridinyl)-1H-indazole]
IKKα
  inhibition at 1 µM: 14.6%
MAPKAPK3
  inhibition at 1 µM: -13.1%
BMX
  inhibition at 1 µM: 4.6%
PKCζ
  inhibition at 1 µM: -9.7%
FGFR1
  inhibition at 1 µM: 6.9%
CDK5/p25
  inhibition at 1 µM: 21.8%
ALK(G1202R)
  inhibition at 1 µM: 3.8%
KIT(D816V)
  inhibition at 1 µM: -1.1%
MET(M1250T)
  inhibition at 1 µM: -0.8%
MET(Y1235D)
  inhibition at 1 µM: -2%
FGR
  inhibition at 1 µM: -5.9%
EPHA2
  inhibition at 1 µM: 5.7%
PDGFRα(D842V)
  inhibition at 1 µM: 0.8%
PKN1
  inhibition at 1 µM: 34.5%
p38β
  inhibition at 1 µM: -1.5%
PKCβ1
  inhibition at 1 µM: -11.4%
CRIK
  inhibition at 1 µM: 16.9%
MRCKα
  inhibition at 1 µM: -18.2%
ALK
  inhibition at 1 µM: 6.1%
AXL
  inhibition at 1 µM: 3.5%
DAPK1
  inhibition at 1 µM: -1.8%
MNK2
  inhibition at 1 µM: 57.3%
CaMK4
  inhibition at 1 µM: 0.5%
ABL(E255K)
  inhibition at 1 µM: -4.2%
CDK2/CycA2
  inhibition at 1 µM: 41.4%
EGFR(L858R)
  inhibition at 1 µM: 0.4%
MARK2
  inhibition at 1 µM: 20.3%
TEC
  inhibition at 1 µM: -0.4%
FES
  inhibition at 1 µM: 1.3%
PKCδ
  inhibition at 1 µM: 1.5%
KDR
  inhibition at 1 µM: 0.1%
